Test results: publication PMC2288882 (The Journal of Cell Biology, 1991)

What was measured:
Format in all cases: binding
[1] = target: native Torpedo AChR (all four subunits) (Tetronarce californica, UniProt P02710+P02714+P02718); conditions: extracts of oocytes expressing all four AChR subunits; Fig. 1 A
[2] = target: Torpedo AChR αγ subunit combination (Tetronarce californica, UniProt P02710+P02714); assay: biochemical
[3] = target: Torpedo AChR αδ subunit combination (Tetronarce californica, UniProt P02710+P02718); assay: biochemical
Torpedo AChR αδ subunit combination, sequence (P02718 22-522): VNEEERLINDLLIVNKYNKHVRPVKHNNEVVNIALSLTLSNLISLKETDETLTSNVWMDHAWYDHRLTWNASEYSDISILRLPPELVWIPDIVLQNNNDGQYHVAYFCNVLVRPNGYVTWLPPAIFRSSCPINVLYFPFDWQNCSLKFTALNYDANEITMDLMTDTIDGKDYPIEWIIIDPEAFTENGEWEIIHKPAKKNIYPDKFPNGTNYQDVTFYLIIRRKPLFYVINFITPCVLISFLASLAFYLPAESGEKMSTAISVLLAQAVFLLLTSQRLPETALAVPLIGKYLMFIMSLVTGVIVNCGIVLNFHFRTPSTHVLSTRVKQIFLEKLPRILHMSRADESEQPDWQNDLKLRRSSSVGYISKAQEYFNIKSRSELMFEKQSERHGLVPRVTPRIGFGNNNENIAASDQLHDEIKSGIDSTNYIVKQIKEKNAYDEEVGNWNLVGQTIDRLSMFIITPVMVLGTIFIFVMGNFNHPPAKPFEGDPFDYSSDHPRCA
Torpedo AChR αδ subunit combination, sequence (P02710 25-461): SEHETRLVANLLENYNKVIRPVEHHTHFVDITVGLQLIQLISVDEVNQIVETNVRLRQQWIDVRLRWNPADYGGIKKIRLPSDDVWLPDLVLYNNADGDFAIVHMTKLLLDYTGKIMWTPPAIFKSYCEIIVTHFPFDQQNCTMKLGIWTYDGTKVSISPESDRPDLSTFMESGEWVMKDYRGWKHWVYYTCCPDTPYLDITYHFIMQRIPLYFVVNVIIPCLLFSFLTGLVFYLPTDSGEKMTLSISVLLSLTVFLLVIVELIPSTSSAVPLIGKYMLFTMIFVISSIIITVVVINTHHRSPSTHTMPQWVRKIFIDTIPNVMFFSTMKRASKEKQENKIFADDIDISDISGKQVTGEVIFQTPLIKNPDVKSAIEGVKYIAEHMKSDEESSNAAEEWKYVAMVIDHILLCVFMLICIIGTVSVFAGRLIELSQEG

native Torpedo AChR (all four subunits), sequence (P02710 25-461): as above
native Torpedo AChR (all four subunits), sequence (P02712 25-493, further chain): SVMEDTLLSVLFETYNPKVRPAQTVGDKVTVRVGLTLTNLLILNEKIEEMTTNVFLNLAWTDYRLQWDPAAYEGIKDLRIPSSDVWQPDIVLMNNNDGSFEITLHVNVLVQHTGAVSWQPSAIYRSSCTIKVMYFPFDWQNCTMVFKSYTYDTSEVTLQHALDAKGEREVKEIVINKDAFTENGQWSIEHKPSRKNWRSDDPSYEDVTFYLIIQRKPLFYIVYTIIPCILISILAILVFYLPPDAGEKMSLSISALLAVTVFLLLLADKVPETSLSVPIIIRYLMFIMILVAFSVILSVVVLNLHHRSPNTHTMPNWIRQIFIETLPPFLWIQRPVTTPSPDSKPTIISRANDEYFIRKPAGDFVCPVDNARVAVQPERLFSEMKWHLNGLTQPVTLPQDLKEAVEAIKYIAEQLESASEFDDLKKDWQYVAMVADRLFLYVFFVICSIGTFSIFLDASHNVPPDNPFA
native Torpedo AChR (all four subunits), sequence (P02718 22-522): as the sequence (P02718 22-522) above
native Torpedo AChR (all four subunits), sequence (P02714 18-506): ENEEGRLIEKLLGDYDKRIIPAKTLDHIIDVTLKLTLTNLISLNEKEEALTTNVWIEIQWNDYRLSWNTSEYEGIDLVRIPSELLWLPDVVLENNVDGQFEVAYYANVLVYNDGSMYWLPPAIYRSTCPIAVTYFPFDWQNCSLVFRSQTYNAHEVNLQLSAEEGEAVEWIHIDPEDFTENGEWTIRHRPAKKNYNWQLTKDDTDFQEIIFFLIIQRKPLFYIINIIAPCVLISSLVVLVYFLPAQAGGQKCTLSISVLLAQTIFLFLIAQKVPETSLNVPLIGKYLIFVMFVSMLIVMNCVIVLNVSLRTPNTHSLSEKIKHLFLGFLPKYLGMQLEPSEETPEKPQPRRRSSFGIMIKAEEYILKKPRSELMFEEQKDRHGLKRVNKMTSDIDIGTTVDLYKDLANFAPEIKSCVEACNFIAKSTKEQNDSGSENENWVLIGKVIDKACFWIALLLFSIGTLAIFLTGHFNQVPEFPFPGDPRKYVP
Torpedo AChR αγ subunit combination, sequence (P02710 25-461): as the sequence (P02710 25-461) above
Torpedo AChR αγ subunit combination, sequence (P02714 18-506): as the sequence (P02714 18-506) above

`COc1cc2c3cc1Oc1cc(ccc1O)C[C@@H]1c4c(cc(OC)c(O)c4Oc4ccc(cc4)C[C@@H]3N(C)CC2)CC[N+]1(C)C` [curare] was tested, and the “shape of curare inhibition curve of αBgt binding” value [1] was “biphasic curve”, the IC50 [2] was ~20 µM and the IC50 [3] was 200 µM.
